Experimental data from US20110150961A1, “ANTI-INFECTIVE CATHETERS” (priority 2008, published 2011).
Converted amounts (≈) assume the structure as drawn. “And” between values parts separate entries of the source, which are not always exact repeats. Equal entries are not always repeated. Where two headings read alike, the source gives them in different places. Blank lines part the entries; values can stand above or below the compound they belong to.

How the values were obtained:
E. faecalis ATCC 29212 = test: MIC and MBC on ATCC control strains (Example 10); assay type: cell-based
Excerpt: (§1) The Gram-positive organisms tested were S. epidermidis ATCC 12228, S. aureus ATCC 25923, and E. faecalis ATCC 29212. The Gram-negative strains tested were P. aeruginosa ATCC 27853, K. pneumonia ATCC 700603 and E. coli ATCC 25922.

S. aureus ATCC 25923 = test: MIC and MBC on ATCC control strains (Example 10); assay type: cell-based
Excerpt: as §1

[1] = test system: S. epidermidis ATCC 12228; test: MIC and MBC on ATCC control strains (Example 10); assay type: cell-based
Excerpt: as §1

P. aeruginosa ATCC 27853 = test: MIC and MBC on ATCC control strains (Example 10); assay type: cell-based
Excerpt: as §1

K. pneumonia ATCC 700603 = test: MIC and MBC on ATCC control strains (Example 10); assay type: cell-based, K. pneumoniae
Excerpt: as §1

C. albicans = test: Multi-organism zone-of-inhibition screening (Example 15); assay type: cell-based; settings: 24 hr, one sample per plate, antibiotic disks 6 mm (Gentamicin 10 μg, penicillin 10 units)
Method: (§2) The 5-FU CVC was compared with the commercially available Arrow CVC. Gentamicin (10 μg) or penicillin (10 units) disks were used as positive controls and CVC was used as the negative control. The samples were challenged with 3 species of Gram-positive bacteria, 4 species of Gram-negative bacteria and 1 type of yeast. The organisms used to challenge the samples were the following ATCC strains: S. aureus, Methicillin Resistant Staphylococcus aureus (MRSA), S. epidermidis, K. pneumoniae, and Vancomycin Resistant Pediococcus (VRP), E. coli, P. aeruginosa and C. albicans.
(§3) Organisms were inoculated into 2 mL of liquid agar, which was poured on top of solidified agar. One plate was made per organism. Test articles were inserted into the agar when the plates were solidified and dry. ZOI results were recorded at 24 hr. Three 0.5-cm sections of the 5-FU CVC were tested on each plate. Each plate also contained one negative and one positive control sample and 1 Arrow CVC sample.

[2] = test system: Vancomycin Resistant Pediococcus (VRP); test: as above; assay type: cell-based; settings: 24 hr, one sample per plate, antibiotic disks 6 mm (Gentamicin 10 μg, penicillin 10 units)
Method: as §2
as §3, with “Three 0.5-cm sections of the 5-FU CVC were tested on each plate.” left out

S. aureus [3] = test: as above; assay type: cell-based; settings: 24 hr, one sample per plate, antibiotic disks 6 mm (Gentamicin 10 μg, penicillin 10 units)
Method: as §2
as §3, with “Three 0.5-cm sections of the 5-FU CVC were tested on each plate.” left out

S. epidermidis [4] = test: as above; assay type: cell-based; settings: 24 hr, one sample per plate, antibiotic disks 6 mm (Gentamicin 10 μg, penicillin 10 units)
Method: as §2
as §3, with “Three 0.5-cm sections of the 5-FU CVC were tested on each plate.” left out

mammalian species = mammalian species (PDR 1998); cited from earlier work
Gram-positive organisms = test: MIC testing by broth microdilution, summary (Example 4); assay type: cell-based; settings: range over organisms
Method: (§4) The Gram-positive organisms tested were S. epidermidis, methicillin resistant S. epidermidis (MRSE), S. aureus, methicillin resistant S. aureus (MRSA), E. faecalis and vancomycin resistant E. faecalis, the Gram-negative organisms tested were P. aeruginosa, E. coli and K. pneumoniae .
(§5) For MIC testing, all isolates were tested against 5-FU by broth microdilution following CLSI methodology (M7-A7).

Gram-negative isolates = test: as above; assay type: cell-based; settings: range over organisms
Method: as §4, §5

[5] = test system: S. epidermidis and S. aureus
Excerpt: Microbial resistance is a concern associated with repeated exposure to anti-microbial agents.

[6] = IV, cited from earlier work
S. aureus [7] = test: Broth microdilution MIC and MBC (Example 9); assay type: cell-based
Method: (§6) Minimal bactericidal concentrations (MBCs) were determined for bacterial isolates associated with catheter-related infections (Attachment 18.18). Broth microdilution MBCs were determined by first performing the standard broth microdilution technique to establish the 5-FU MIC for each organism (CLSI M7-A7). […] were sampled to determine the MBC as defined as the concentration at which a ≧99.9% reduction in the colony forming units relative to the starting inoculum concentration was achieved. When the MBC:MIC ratio for 5-FU was […].

P. aeruginosa [8] = test: Broth microdilution MIC and MBC (Example 9); assay type: cell-based
Method: as §6

S. epidermidis [9] = test: Broth microdilution MIC and MBC (Example 9); assay type: cell-based
Method: as §6

E. coli [10] = test: Broth microdilution MIC and MBC (Example 9); assay type: cell-based
Method: as §6

E. faecalis [11] = test: Broth microdilution MIC and MBC (Example 9); assay type: cell-based
Method: as §6

K. pneumoniae [12] = test: Broth microdilution MIC and MBC (Example 9); assay type: cell-based
Method: as §6

S. aureus [13] = test: MIC testing by broth microdilution, clinical isolates (Example 4); assay type: cell-based
Method: as §4, §5

P. aeruginosa [14] = test: as above; assay type: cell-based; settings: Pseudomonas aeruginosa, N=100
Method: as §4, §5

S. epidermidis [15] = test: as above; assay type: cell-based
Method: as §4, §5

E. coli [16] = test: as above; assay type: cell-based; settings: Escherichia coli, N=102
Method: as §4, §5

E. faecalis [17] = test: as above; assay type: cell-based
Method: as §4, §5

K. pneumoniae [18] = test: as above; assay type: cell-based; settings: Klebsiella pneumoniae, N=104
Method: as §4, §5

MIC (E. faecalis ATCC 29212): 3.7 µg/mL (≈ 15 µM) | MIC (S. aureus ATCC 25923): <0.05 µg/mL | MIC [1]: <0.05 µg/mL | MIC (P. aeruginosa ATCC 27853): >100 µg/mL | MIC (K. pneumonia ATCC 700603): 1.23 µg/mL (≈ 5 µM)
Compound: O=c1[nH]c(=O)n([C@H]2C[C@H](O)[C@@H](CO)O2)cc1F [Flox, floxuridine]
MBC (E. faecalis ATCC 29212): 11.11 µg/mL (≈ 45.1 µM) | MBC (S. aureus ATCC 25923): 0.14 µg/mL (≈ 0.569 µM) | MBC [1]: <0.05 µg/mL | MBC (P. aeruginosa ATCC 27853): >100 µg/mL | MBC (K. pneumonia ATCC 700603): 3.7 µg/mL (≈ 15 µM)

Compound: Penicillin
ZOI (C. albicans): 0 mm | ZOI [2]: 0 mm | ZOI (S. aureus [3]): 41.3 mm | ZOI (S. epidermidis [4]): 0 mm

Compound: O=c1[nH]cc(F)c(=O)[nH]1 [5-FU, 5-fluorouracil]
LD50 (mammalian species): 94 to 880 mg/kg | MIC50 (Gram-positive organisms): 0.015 to 0.12 µg/mL (≈ 0.115 to 0.923 µM) | MIC50 (Gram-negative isolates): 16 to 128 µg/mL (≈ 123 to 984 µM) | Historical 5-FU MIC values [5]: 0.06 to 0.12 µg/mL | plasma levels ([6]; continuous infusion): about 10 μM | plasma concentrations ([6]; rapid infusion): 0.1-1.0 mM and 13-130 μg/ml | MBC (E. faecalis ATCC 29212; Enterococcus faecalis, ATCC29212, read-out: MBC): 3.7 µg/mL (≈ 28.4 µM) | MIC (E. faecalis ATCC 29212; Enterococcus faecalis, ATCC29212, read-out: MIC): 3.7 µg/mL (≈ 28.4 µM) | MBC (S. aureus ATCC 25923; Staphylococcus aureus, ATCC25923, read-out: MBC): 1.23 µg/mL (≈ 9.46 µM) | MIC (S. aureus ATCC 25923; Staphylococcus aureus, ATCC25923, read-out: MIC): 1.23 µg/mL (≈ 9.46 µM) | MBC ([1]; Staphylococcus epidermidis, ATCC12228, read-out: MBC): 0.41 µg/mL (≈ 3.15 µM) | MIC ([1]; Staphylococcus epidermidis, ATCC12228, read-out: MIC): 0.14 µg/mL (≈ 1.08 µM) | MBC (P. aeruginosa ATCC 27853; Pseudomonas aeruginosa, ATCC27853, read-out: MBC): > 100 µg/mL | MIC (P. aeruginosa ATCC 27853; Pseudomonas aeruginosa, ATCC27853, read-out: MIC): > 100 µg/mL | MBC (K. pneumonia ATCC 700603; Klebsiella pneumoniae, ATCC700603, read-out: MBC): > 100 µg/mL | MIC (K. pneumonia ATCC 700603; Klebsiella pneumoniae, ATCC700603, read-out: MIC): 100 µg/mL (≈ 769 µM) | MIC range (S. aureus [7]; S. aureus, 11 strains): 0.03 to 0.25 µg/mL | bactericidal, number of strains (S. aureus [7]; S. aureus, by MBC:MIC ratio): 4 of the 11 | MBC range (S. aureus [7]; S. aureus, ≧99.9% reduction in CFU): 0.12 to 32 µg/mL | MIC (S. aureus [7]; Staphylococcus aureus, methicillin resistant S. aureus, N=5, read-out: averaged MIC): 0.12 µg/mL (≈ 0.923 µM) | MBC (P. aeruginosa [8]; Pseudomonas aeruginosa, ≧99.9% reduction in CFU, read-out: MBC (all strains)): > 512 µg/mL | bactericidal activity (P. aeruginosa [8]; by MBC:MIC ratio): no bactericidal activity | MIC range (S. epidermidis [9]; S. epidermidis, 10 strains): 0.03 to 0.25 µg/mL | bactericidal, number of strains (S. epidermidis [9]; S. epidermidis, by MBC:MIC ratio): 6 of the 11 | MBC range (S. epidermidis [9]; S. epidermidis, ≧99.9% reduction in CFU): 0.03 to 0.25 µg/mL | MIC (S. epidermidis [9]; Staphylococcus epidermidis, methicillin resistant S. epidermidis, N=8, read-out: averaged MIC): 0.08 µg/mL (≈ 0.615 µM) | MIC range (E. coli [10]; 10 strains): 0.25 to 64 µg/mL | bactericidal, number of strains (E. coli [10]; by MBC:MIC ratio): 1 of the 10 | MIC range (E. faecalis [11]; 10 strains): 8 to 120 ng/mL | bactericidal, number of strains (E. faecalis [11]; by MBC:MIC ratio): 8 of the 10 | MBC range (E. faecalis [11]; ≧99.9% reduction in CFU): 8 to 250 ng/mL | MBC (K. pneumoniae [12]; Klebsiella pneumoniae, ≧99.9% reduction in CFU, read-out: MBC (all strains)): > 512 µg/mL | bactericidal activity (K. pneumoniae [12]; by MBC:MIC ratio): no bactericidal activity | MIC50 (S. aureus [13]; Oxacillin-R, N=40): 0.12 µg/mL (≈ 0.923 µM) | MIC50 (S. aureus [13]; Oxacillin-S, N=61): 0.12 µg/mL (≈ 0.923 µM) | MIC90 (S. aureus [13]; Staphylococcus aureus, Oxacillin-R, N=40): 0.12 µg/mL (≈ 0.923 µM) | MIC90 (S. aureus [13]; Staphylococcus aureus, Oxacillin-S, N=61): 0.25 µg/mL (≈ 1.92 µM) | MIC90 (S. aureus [13]; Staphylococcus aureus, all, N=101): 0.25 µg/mL (≈ 1.92 µM) | MIC50 (S. aureus [13]; Staphylococcus aureus, all, N=101, read-out: MIC50): 0.12 µg/mL (≈ 0.923 µM) | MIC50 (P. aeruginosa [14]): 16 µg/mL (≈ 123 µM) | MIC90 (P. aeruginosa [14]): 64 µg/mL (≈ 492 µM) | MIC50 (S. epidermidis [15]; Oxacillin-R, N=78): 0.06 µg/mL (≈ 0.461 µM) | MIC50 (S. epidermidis [15]; Oxacillin-S, N=22): 0.06 µg/mL (≈ 0.461 µM) | MIC90 (S. epidermidis [15]; Staphylococcus epidermidis, Oxacillin-R, N=78): 0.5 µg/mL (≈ 3.84 µM) | MIC90 (S. epidermidis [15]; Staphylococcus epidermidis, Oxacillin-S, N=22): 0.12 µg/mL (≈ 0.923 µM) | MIC90 (S. epidermidis [15]; Staphylococcus epidermidis, all, N=100): 0.25 µg/mL (≈ 1.92 µM) | MIC50 (S. epidermidis [15]; Staphylococcus epidermidis, all, N=100, read-out: MIC50): 0.06 µg/mL (≈ 0.461 µM) | MIC50 (E. coli [16]): 32 µg/mL (≈ 246 µM) | MIC90 (E. coli [16]): 64 µg/mL (≈ 492 µM) | MIC50 (E. faecalis [17]; Enterococcus faecalis, all, N=101, read-out: MIC50): 0.015 µg/mL (≈ 0.115 µM) | MIC90 (E. faecalis [17]; Enterococcus faecalis, all, N=101, read-out: MIC90): 0.06 µg/mL (≈ 0.461 µM) | MIC50 (E. faecalis [17]; Vancomycin-R, N=21): 0.015 µg/mL (≈ 0.115 µM) | MIC90 (E. faecalis [17]; Vancomycin-R, N=21): 0.06 µg/mL (≈ 0.461 µM) | MIC50 (E. faecalis [17]; Vancomycin-S, N=80): 0.015 µg/mL (≈ 0.115 µM) | MIC90 (E. faecalis [17]; Vancomycin-S, N=80): 0.06 µg/mL (≈ 0.461 µM) | MIC50 (K. pneumoniae [18]): 128 µg/mL (≈ 984 µM) | MIC90 (K. pneumoniae [18]): > 512 µg/mL
